Results from patent US9259001B2, “5-phenyl-substituted N-(tetrazol-5-yl) aryl carboxylic acid amides and N-(triazol-5-yl) aryl carboxylic acid amides, and use thereof as herbicides” (BAYER INTELLECTUAL PROPERTY GMBH, priority 2011, dated 2016).

Legend:
Assay in all cases: Comparative tests by the post-emergence method
Format in all cases: in vivo
Abutilon theophrasti = tested on: Abutilon theophrasti
Description: (§1) Seeds of monocotyledonous and dicotyledonous weed and crop plants are placed in sandy loam in wood-fiber pots, covered with soil and cultivated in a greenhouse under good growth conditions. 2 to 3 weeks after sowing, the test plants are treated at the one-leaf stage. The inventive compounds formulated in the form of wettable powders (WP) or as emulsion concentrates (EC) are then sprayed onto the green parts of the plants as an aqueous suspension or emulsion at a water application rate of 600 to 800 I/ha (converted) with addition of 0.2% wetting agent. After the test plants have been left to stand in the greenhouse under optimal growth conditions for about 3 weeks, the action of the formulations is assessed visually in comparison to untreated controls (herbicidal action in percent (%): 100% activity=the plants have died, 0% activity=like control plants). Here, the compounds Nos. 1-02, 1-03, 1-05, 1-06, 1-14, 1-15, 2-01, 2-02, 2-03, 2-04, 2-05, 2-06, 2-16, 2-17, 2-18, 2-19, 2-20, 2-21, 2-22, 2-23, 2-24, 2-25, 2-26, 2-27, 2-28, 2-29, 2-30, 2-31, 2-33, 2-34, 2-35, 2-39, 2-40, 2-41, 2-43, 2-44, 2-45, 2-46, 2-47, 2-48, 2-49, 2-50, 2-51, 2-52, 2-53, 2-60, 2-61, 2-62, 2-63, 2-64, 2-65, 2-69 and 2-83 each show, at an application rate of 80 g/ha, an activity of at least 80% against Abutilon theophrasti and Veronica persica. The compounds Nos. 1-14, 2-32, 2-42, 2-66, 2-67, 2-69 and 2-83, at an application rate of 80 g/ha, each show an activity of at least 80% against Amaranthus retroflexus and Stellaria media.
(§2) For comparative tests, the compound No. 1-15 according to the invention and the compounds No. 118 and No. 119 known from EP 0 049 071 A1 were tested by the post-emergence method at various dosages against a number of harmful plants.
(§3) ABUTH Abutilon theophrasti PHBPU Pharbitis purpureum

Pharbitis purpureum = tested on: Pharbitis purpureum
Description: as §1, §2, §3

Veronica persica = tested on: Veronica persica
Description: as §1, §2

Structure (SMILES)	Herbicidal action against ABUTH (Abutilon theophrasti; dosage 5 g/ha) [%]	Herbicidal action against ABUTH (Abutilon theophrasti; dosage 20 g/ha) [%]	Herbicidal action against ABUTH (Abutilon theophrasti; dosage 80 g/ha) [%]	Herbicidal action against PHBPU (Pharbitis purpureum; dosage 5 g/ha) [%]	Herbicidal action against PHBPU (Pharbitis purpureum; dosage 20 g/ha) [%]	Herbicidal action against PHBPU (Pharbitis purpureum; dosage 80 g/ha) [%]	Herbicidal action against VERPE (Veronica persica; dosage 5 g/ha) [%]	Herbicidal action against VERPE (Veronica persica; dosage 20 g/ha) [%]	Herbicidal action against VERPE (Veronica persica; dosage 80 g/ha) [%]
COc1cccc(OC)c1C(=O)Nc1nc[nH]n1 [Compound No. 119, N-(1H-1,2,4-triazol-3-yl)-2,6-dimethoxybenzamide]	0	0	0	0	0	0	0	0	0
Cc1cc(C(=O)Nc2ncnn2C)c(Cl)cc1S(C)(=O)=O [No. 1-15]	90	90	90	80	80	80	40	80	80
CCC(C)(CC)c1nnc(NC(=O)c2c(OC)cccc2OC)[nH]1 [Compound No. 118, N-[5-(1-ethyl-1-methylpropyl)-4H-1,2,4-triazol-3-yl]-2,6-dimethoxybenzamide]	0	0	0	0	0	0	0	0	0
